Read-outs that look alike come from different tables or passages of the source.

Data set [1] addresses T1, MDR1 P-glycoprotein (P-gp) (Homo sapiens, UniProt P08183).
T1 construct: host or cells: MDCK (MDCK-MDR1)
Put plainly: Transporter assay, bi-directional transport, MDCK-MDR1 cells. The following applies: basolateral to apical / apical to basolateral, >2 = substrate; for efflux ratio at 2 h, 0.1 uM: human, MDCK-MDR1, 0.1 uM, read-out: PGP (efflux ratio); for PGP (efflux ratio): 0.1 uM, 2 hours. The class given is in vitro ADME. On the procedure:
(§1) Compounds were assessed as substrates of MDR1 P-glycoprotein (P-gp) and mouse Breast Cancer Resistance Protein (mBcrp) at 0.1 uM, for 2 hours, in bi-directional transport assays using recombinant MDCK cell lines as described previously (Feng et al. Drug Metabolism and Disposition 2008, Vol. 36:268-275). MDCK-MDR1 and MDCK-mBcrp cells were acquired from the National Institutes of Health (Bethesda, MID) and the Netherlands Cancer Institute respectively, and used under license agreement. Data are expressed as efflux ratios, where transport across the cell monolayer in the basolateral to apical direction is divided by transport in the apical to basolateral direction. Efflux ratios >2 indicate the test compound is a substrate of the transporter tested.

Data set [2] addresses T2, mouse Breast Cancer Resistance Protein (mBcrp) (Mus musculus, UniProt Q7TMS5).
T2 construct: host or cells: MDCK (MDCK-mBcrp)
T2 sequence (Q7TMS5 1-657): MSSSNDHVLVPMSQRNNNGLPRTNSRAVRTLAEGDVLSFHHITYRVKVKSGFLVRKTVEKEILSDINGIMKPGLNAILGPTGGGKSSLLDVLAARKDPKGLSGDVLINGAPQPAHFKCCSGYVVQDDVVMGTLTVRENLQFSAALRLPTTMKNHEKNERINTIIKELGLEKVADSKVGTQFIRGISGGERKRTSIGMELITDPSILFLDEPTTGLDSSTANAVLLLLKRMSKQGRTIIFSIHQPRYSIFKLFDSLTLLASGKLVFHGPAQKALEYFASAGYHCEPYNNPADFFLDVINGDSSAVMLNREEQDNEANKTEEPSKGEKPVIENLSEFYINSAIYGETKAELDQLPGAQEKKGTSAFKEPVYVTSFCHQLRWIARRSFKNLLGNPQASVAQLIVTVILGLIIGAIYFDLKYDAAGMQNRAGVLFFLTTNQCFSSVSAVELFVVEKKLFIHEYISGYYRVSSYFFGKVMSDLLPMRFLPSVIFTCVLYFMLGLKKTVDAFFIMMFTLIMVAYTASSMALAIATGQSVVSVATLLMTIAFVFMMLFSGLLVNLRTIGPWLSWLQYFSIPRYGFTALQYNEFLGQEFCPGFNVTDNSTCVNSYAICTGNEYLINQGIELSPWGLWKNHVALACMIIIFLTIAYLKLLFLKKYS
Put plainly: Transporter assay, bi-directional transport, MDCK-mBcrp cells. The data set is classed as in vitro ADME. The following applies: basolateral to apical / apical to basolateral, >2 = substrate; for efflux ratio at 2 h, 0.1 uM: mouse, read-out: BCRP (efflux ratio); for BCRP (efflux ratio): 0.1 uM, 2 hours. The method, then: as §1

Data set [3] concerns MLKL phosphorylation (pMLKL) in HT29-L23 cells. Put plainly: MLKL Phosphorylation High-Content Assay. The data set is classed as cell-based. The following applies: necroptosis induced with human TNFα, SMAC mimetic and Z-VAD, 6 h, read-out: LE pMLKL HC IC50. The method in brief: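 HT29-L23 cells incubated 6 h at 37° C before detection of phospho-MLKL by immunostaining with anti-phospho-MLKL antibody (1:1000 in PBS/0.1% BSA, overnight at 4° C). Readout by high-content imaging with compartmental image analysis.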

For the next data set, the system named is hWB. Put plainly: hWB. The data set is classed as cell-based. The conditions noted are these: printed as "hWB" value in the pMLKL IC50 column; no method given.

T1 sequence (P08183 whole entry): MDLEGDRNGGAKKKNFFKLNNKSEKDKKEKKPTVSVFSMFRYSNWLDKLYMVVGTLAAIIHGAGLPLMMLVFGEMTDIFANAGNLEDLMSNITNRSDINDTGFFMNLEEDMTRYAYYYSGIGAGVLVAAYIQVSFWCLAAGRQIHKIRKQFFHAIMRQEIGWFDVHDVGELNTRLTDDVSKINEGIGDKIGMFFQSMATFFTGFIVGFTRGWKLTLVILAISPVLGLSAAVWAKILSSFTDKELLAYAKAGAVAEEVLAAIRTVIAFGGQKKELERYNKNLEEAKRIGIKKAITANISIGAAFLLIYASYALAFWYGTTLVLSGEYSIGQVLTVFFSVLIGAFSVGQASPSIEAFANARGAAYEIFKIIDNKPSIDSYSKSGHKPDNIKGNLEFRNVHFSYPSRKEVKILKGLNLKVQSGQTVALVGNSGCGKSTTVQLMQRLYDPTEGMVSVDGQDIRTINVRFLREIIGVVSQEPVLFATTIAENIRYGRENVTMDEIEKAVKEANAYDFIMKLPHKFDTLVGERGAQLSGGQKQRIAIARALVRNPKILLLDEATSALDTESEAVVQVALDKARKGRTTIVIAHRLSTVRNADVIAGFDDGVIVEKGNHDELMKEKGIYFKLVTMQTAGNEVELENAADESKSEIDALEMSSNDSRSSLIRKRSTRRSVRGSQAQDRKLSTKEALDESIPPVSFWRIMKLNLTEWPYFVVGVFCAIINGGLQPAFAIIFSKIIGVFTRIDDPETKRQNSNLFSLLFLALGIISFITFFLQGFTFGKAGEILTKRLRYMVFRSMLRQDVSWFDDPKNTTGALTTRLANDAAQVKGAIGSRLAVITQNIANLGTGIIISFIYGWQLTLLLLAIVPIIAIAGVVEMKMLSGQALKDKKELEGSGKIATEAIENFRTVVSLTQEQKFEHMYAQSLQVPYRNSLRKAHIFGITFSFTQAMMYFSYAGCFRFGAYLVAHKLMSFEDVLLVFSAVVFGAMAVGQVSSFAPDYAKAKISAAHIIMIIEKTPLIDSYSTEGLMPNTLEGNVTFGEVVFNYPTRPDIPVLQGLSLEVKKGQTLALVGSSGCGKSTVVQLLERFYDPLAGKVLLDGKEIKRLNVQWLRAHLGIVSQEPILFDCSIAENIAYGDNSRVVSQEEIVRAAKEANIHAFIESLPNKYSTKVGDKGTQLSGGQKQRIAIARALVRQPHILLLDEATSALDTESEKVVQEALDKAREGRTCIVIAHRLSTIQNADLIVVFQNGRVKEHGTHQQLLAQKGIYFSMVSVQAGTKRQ

With `CC(O)(c1ccc(F)cc1)C(F)(F)CCOc1cccc(-c2ccn3nc(N)nc3c2)c1F` (single isomer, unassigned) [Example 2, 5-(3-(2-amino-[1,2,4]triazolo[1,5-a]pyridin-7-yl)-2-fluorophenoxy)-3,3-difluoro-2-(4-fluorophenyl)pentan-2-ol], the efflux ratio at 2 h, 0.1 uM stood at 1.8 in data set [1] and 6.2 in data set [2]. For the same compound, in data set [3], the IC50 amounted to 4 nM.
Consider `CC(O)(c1ccc(F)cc1)C(F)(F)CCOc1cccc(-c2ccn3nc(N)nc3c2)c1F` (single isomer, unassigned) [Example 3, 5-(3-(2-amino-[1,2,4]triazolo[1,5-a]pyridin-7-yl)-2-fluorophenoxy)-3,3-difluoro-2-(4-fluorophenyl)pentan-2-ol], for which the “PGP (efflux ratio)” value in data set [1] is 1.2. The “BCRP (efflux ratio)” value in data set [2] was 3.4. In addition, the IC50 in data set [3] amounted to 0.1 nM.
Consider `CC(O)(c1ccc(F)cc1)C(F)(F)CCOc1c(Cl)ccc(-c2ccn3nc(N)nc3c2)c1F` (single isomer, unassigned) [Example 4, 5-(3-(2-amino-[1,2,4]triazolo[1,5-a]pyridin-7-yl)-6-chloro-2-fluorophenoxy)-3,3-difluoro-2-(4-fluorophenyl)pentan-2-ol], for which, in data set [1], the “PGP (efflux ratio)” value is recorded as 1.5. For the same compound, the “BCRP (efflux ratio)” value in data set [2] came to 1.7. For the same compound, the IC50 in data set [3] stood at 0.5 nM.
For `[2H]C([2H])(CC(F)(F)C(C)(O)c1ccc(F)cc1)Oc1cccc(-c2ccn3nc(N)nc3c2)c1F` (single isomer, unassigned) [Example 13, 5-(3-(2-amino-[1,2,4]triazolo[1,5-a]pyridin-7-yl)-2-fluorophenoxy)-3,3-difluoro-2-(4-fluorophenyl)pentan-5,5-d2-2-ol], the results for the efflux ratio at 2 h, 0.1 uM in data set [1] and in data set [2] were 1.8 and 3.9, respectively. Moreover, the IC50 in data set [3] was 0.1 nM.
As for `[2H]C([2H])(CC(F)(F)C(C)(O)c1ccc(F)cc1)Oc1c(F)ccc(-c2ccn3nc(N)nc3c2)c1F` (single isomer, unassigned) [Example 15, 5-(3-(2-amino-[1,2,4]triazolo[1,5-a]pyridin-7-yl)-2,6-difluorophenoxy)-3,3-difluoro-2-(4-fluorophenyl)pentan-5,5-d2-2-ol], the figures for the efflux ratio at 2 h, 0.1 uM in data set [1] and in data set [2] were 1.4 and 2.9, respectively. In addition, in data set [3], the IC50 came to 0.3 nM.
Turning to `CC(O)(c1ccc(F)cn1)C(F)(F)CCOc1c(F)ccc(-c2ccn3nc(N)nc3c2)c1F` (single isomer, unassigned) [Example 27, 5-(3-(2-amino-[1,2,4]triazolo[1,5-a]pyridin-7-yl)-2,6-difluorophenoxy)-3,3-difluoro-2-(5-fluoropyridin-2-yl)pentan-2-ol], the efflux ratio at 2 h, 0.1 uM in data set [1] amounted to 1.1; in data set [2] it was 1.6. Moreover, the IC50 in the data set with hWB worked out at 64 nM.
Take `CC(O)(c1ccc(F)cn1)C(F)(F)CCOc1c(F)ccc(-c2ccn3nc(N)nc3c2)c1F` (single isomer, unassigned) [Example 28, 5-(3-(2-amino-[1,2,4]triazolo[1,5-a]pyridin-7-yl)-2,6-difluorophenoxy)-3,3-difluoro-2-(5-fluoropyridin-2-yl)pentan-2-ol]: the IC50 in the data set with hWB was 82 nM.
As for `CC(O)(c1ccc(F)cc1)C(F)(F)CCOc1c(F)cc(F)c(-c2ccn3nc(N)nc3c2)c1F` (single isomer, unassigned) [Example 29, 5-(3-(2-amino-[1,2,4]triazolo[1,5-a]pyridin-7-yl)-2,4,6-trifluorophenoxy)-3,3-difluoro-2-(4-fluorophenyl)pentan-2-ol], the efflux ratio at 2 h, 0.1 uM in data set [1] came to 1.6; in data set [2], 2.5. Also, the IC50 in the data set on hWB was determined as 4 nM.
As to `CC(O)(c1ccc(F)cn1)C(F)(F)CCOc1c(Cl)ccc(-c2ccn3nc(N)nc3c2)c1F` (single isomer, unassigned) [Example 31, 5-(3-(2-amino-[1,2,4]triazolo[1,5-a]pyridin-7-yl)-6-chloro-2-fluorophenoxy)-3,3-difluoro-2-(5-fluoropyridin-2-yl)pentan-2-ol], the results for the efflux ratio at 2 h, 0.1 uM in data set [1] and in data set [2] were 5.3 and 1.4, respectively. In addition, in data set [3], the IC50 was determined as 2 nM.
Regarding `Nc1nc2cc(-c3ccc(F)c(OCCC(F)(F)C(O)c4ccc(F)cn4)c3F)ccn2n1` (single isomer, unassigned) [Example 34, 4-(3-(2-amino-[1,2,4]triazolo[1,5-a]pyridin-7-yl)-2,6-difluorophenoxy)-2,2-difluoro-1-(5-fluoropyridin-2-yl)butan-1-ol], the efflux ratio at 2 h, 0.1 uM in data set [1] was determined as 2.4; in data set [2] it was 7. Besides, in data set [3] (Homo sapiens), the IC50 came out at 8 nM.
For `CC(O)(c1ccccc1)C(F)(F)CCOc1c(F)ccc(-c2ccn3nc(N)nc3c2F)c1F` (single isomer, unassigned) [Example 38, 5-(3-(2-amino-8-fluoro-[1,2,4]triazolo[1,5-a]pyridin-7-yl)-2,6-difluorophenoxy)-3,3-difluoro-2-phenylpentan-2-ol], the efflux ratio at 2 h, 0.1 uM in data set [1] worked out at 2.1; in data set [2], 5.1. The IC50 in data set [3] (Homo sapiens) came out at 0.3 nM.
As for `CC(O)(c1ccccc1)C(F)(F)CCOc1c(F)ccc(-c2ccn3nc(N)nc3c2)c1F` (single isomer, unassigned) [Example 40, 5-(3-(2-amino-[1,2,4]triazolo[1,5-a]pyridin-7-yl)-2,6-difluorophenoxy)-3,3-difluoro-2-phenylpentan-2-ol], the efflux ratio at 2 h, 0.1 uM in data set [1] was found to be 1.7; in data set [2], 4.8. Further, the IC50 in data set [3] was found to be 0.6 nM.
In the case of `C[C@](O)(c1ccc(F)cc1)C(F)(F)CCOc1c(F)ccc(-c2ccn3nc(N)nc3c2)c1F` (single isomer, unassigned) [Example 49, 5-(3-(2-amino-[1,2,4]triazolo[1,5-a]pyridin-7-yl)-2,6-difluorophenoxy)-3,3-difluoro-2-(4-fluorophenyl)pentan-2-ol], the figures for the efflux ratio at 2 h, 0.1 uM in data set [1] and in data set [2] were 1.5 and 4, respectively. Further, the IC50 in data set [3] (Homo sapiens) came out at 34 nM.
In the case of `C[C@@](O)(c1ccc(F)cc1)C(F)(F)CCOc1c(F)ccc(-c2ccn3nc(N)nc3c2)c1F` (single isomer, unassigned) [Example 50, 5-(3-(2-amino-[1,2,4]triazolo[1,5-a]pyridin-7-yl)-2,6-difluorophenoxy)-3,3-difluoro-2-(4-fluorophenyl)pentan-2-ol], the efflux ratio at 2 h, 0.1 uM was 1.6 in data set [1] and 2.4 in data set [2]. In addition, the IC50 in data set [3] (Homo sapiens) was 0.4 nM.
As for `CC(O)(c1ccc(F)cc1)C(F)(F)CCOc1c(Cl)ccc(-c2ccn3nc(N)nc3c2)c1F` (single isomer, unassigned) [Example 52, 5-(3-(2-amino-[1,2,4]triazolo[1,5-a]pyridin-7-yl)-6-chloro-2-fluorophenoxy)-3,3-difluoro-2-(4-fluorophenyl)pentan-2-ol], the efflux ratio at 2 h, 0.1 uM in data set [1] amounted to 1.5; in data set [2], 1.7. Besides, the IC50 in data set [3] was 0.5 nM.
Take `CC(O)(c1ccc(F)cc1)C(F)(F)CCOc1ccc(Cl)c(-c2ccn3nc(N)nc3c2)n1` (single isomer, unassigned) [Example 80, 5-((6-(2-amino-[1,2,4]triazolo[1,5-a]pyridin-7-yl)-5-chloropyridin-2-yl)oxy)-3,3-difluoro-2-(4-fluorophenyl)pentan-2-ol]: the efflux ratio at 2 h, 0.1 uM was determined as 5.9 in data set [1] and 5.6 in data set [2]. Besides, the IC50 in data set [3] was 6.8 nM.
As to `Cc1ccc(-c2ccn3nc(N)nc3c2)c(F)c1C(=O)NCC(F)(F)C(O)c1ccc(F)cc1` (stereo not drawn) [Example 30 from WO2022/086828, reference compound], the efflux ratio at 2 h, 0.1 uM in data set [1] came to 35; in data set [2], 43.

These data come from patent publication US20260217711A1, “TRIAZOLOPYRIDINYL ETHER LINKED COMPOUNDS AS KINASE INHIBITORS” (Bristol-Myers Squibb Company, priority 2023, published 2026).
